Activity calls are given as the source filed them. No cut-off for these calls is given here.
Assays:
[1] = Inhibition of PKA
[2] = Inhibition of SGK
[3] = Inhibition of PKC
[4] = target: T1, RAC-beta serine/threonine-protein kinase (Homo sapiens, UniProt P31751); experiment: Inhibition of Akt2 by cell-based assay
[5] = target: T2, RAC-alpha serine/threonine-protein kinase (Homo sapiens, UniProt P31749); experiment: Inhibition of Akt1 by cell-based assay
[6] = target: T1, RAC-beta serine/threonine-protein kinase; experiment: Inhibition of Akt2
[7] = target: T2, RAC-alpha serine/threonine-protein kinase; experiment: Inhibition of Akt1
[8] = target: RAC-gamma serine/threonine-protein kinase (Homo sapiens, UniProt Q9Y243); experiment: Inhibition of Akt3
[9] = Distribution coefficient, log D of the compound; assay type: physicochemical; conditions: octanol/water
Mus musculus [10] = experiment: Inhibition of Akt1 in mouse lung at 50 mg/kg, ip administered three times a day after 16 hrs by IP kinase assay; assay type: functional; parameters: scale not given: the % may be the effect or the level left; conditions: route intraperitoneal
[11] = Drug concentration in mouse blood at 50 mg/kg, ip administered three times a day after 10 hrs; assay type: ADME, organism-based; parameters: dose 50 mg/kg, route intraperitoneal; conditions: whole blood, read-out: Drug uptake
Mus musculus [12] = experiment: Inhibition of AKT2 in A2780 cells xenografted mouse tumor tissue at 50 mg/kg, twice daily after 2 hrs by IP kinase assay; assay type: functional; conditions: route intraperitoneal
[13] = Drug concentration in mouse blood at 50 mg/kg, ip administered three times a day after 16 hrs; assay type: ADME, organism-based; parameters: dose 50 mg/kg, route intraperitoneal; conditions: whole blood, read-out: Drug uptake
[14] = Partition coefficient, log P of the compound; assay type: physicochemical; conditions: octanol/water
[15] = target: Voltage-gated inwardly rectifying potassium channel KCNH2 (Homo sapiens, UniProt Q12809); experiment: Inhibition of human ERG
Mus musculus [16] = experiment: Inhibition of Akt2 in mouse lung at 50 mg/kg, ip administered three times a day after 24 hrs by IP kinase assay; assay type: functional; parameters: scale not given: the % may be the effect or the level left; conditions: route intraperitoneal
[17] = Half life in rat; assay type: ADME, organism-based; conditions: in vivo
Mus musculus [18] = experiment: Inhibition of Akt1 in mouse lung at 50 mg/kg, ip administered three times a day after 10 hrs by IP kinase assay; assay type: functional; parameters: scale not given: the % may be the effect or the level left; conditions: route intraperitoneal
[19] = Drug concentration in mouse blood at 50 mg/kg, ip administered three times a day after 24 hrs; assay type: ADME, organism-based; parameters: dose 50 mg/kg, route intraperitoneal; conditions: whole blood, read-out: Drug uptake
Mus musculus [20] = experiment: Inhibition of AKT1 in A2780 cells xenografted mouse tumor tissue at 50 mg/kg, twice daily after 2 hrs by IP kinase assay; assay type: functional; conditions: route intraperitoneal
Mus musculus [21] = experiment: Inhibition of Akt2 in mouse lung at 50 mg/kg, ip administered three times a day after 16 hrs by IP kinase assay; assay type: functional; parameters: scale not given: the % may be the effect or the level left; conditions: route intraperitoneal
Homo sapiens = species: Homo sapiens; experiment: Protein binding in human plasma; conditions: read-out: PB (converted)
Mus musculus [22] = experiment: Inhibition of AKT2 in A2780 cells xenografted mouse lung tissue at 50 mg/kg, twice daily after 2 hrs by IP kinase assay; assay type: functional; conditions: route intraperitoneal
[23] = Clearance in rat; assay type: ADME, organism-based; conditions: in vivo
Mus musculus [24] = experiment: Inhibition of Akt1 in mouse lung at 50 mg/kg, ip administered three times a day after 24 hrs by IP kinase assay; assay type: functional; parameters: scale not given: the % may be the effect or the level left; conditions: route intraperitoneal
A2780 = experiment: Antitumor activity in human A2780 cells xenografted mouse assessed as decrease in tumor weight at 50 mg/kg, sc administered three times a day twice a week for five cycles; assay type: functional, organism-based; parameters: dose 50 mg/kg
Mus musculus [25] = experiment: Inhibition of AKT1 in A2780 cells xenografted mouse lung tissue at 50 mg/kg, twice daily after 2 hrs by IP kinase assay; assay type: functional; conditions: route intraperitoneal
Mus musculus [26] = experiment: Inhibition of Akt2 in mouse lung at 50 mg/kg, ip administered three times a day after 10 hrs by IP kinase assay; assay type: functional; parameters: scale not given: the % may be the effect or the level left; conditions: route intraperitoneal

T1 sequence (P31751 whole entry): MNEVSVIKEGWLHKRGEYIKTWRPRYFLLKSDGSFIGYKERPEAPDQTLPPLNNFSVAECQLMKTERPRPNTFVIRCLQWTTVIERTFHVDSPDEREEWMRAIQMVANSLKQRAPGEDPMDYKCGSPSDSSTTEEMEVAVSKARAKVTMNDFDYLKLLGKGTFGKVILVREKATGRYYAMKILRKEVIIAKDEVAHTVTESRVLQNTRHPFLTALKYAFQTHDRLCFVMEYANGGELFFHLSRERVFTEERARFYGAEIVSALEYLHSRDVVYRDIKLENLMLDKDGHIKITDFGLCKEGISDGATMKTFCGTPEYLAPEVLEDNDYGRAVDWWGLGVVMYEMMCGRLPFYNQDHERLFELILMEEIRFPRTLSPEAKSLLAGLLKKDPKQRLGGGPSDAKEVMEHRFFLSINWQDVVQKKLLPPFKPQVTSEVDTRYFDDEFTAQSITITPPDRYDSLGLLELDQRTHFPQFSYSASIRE
T2 sequence (P31749 whole entry): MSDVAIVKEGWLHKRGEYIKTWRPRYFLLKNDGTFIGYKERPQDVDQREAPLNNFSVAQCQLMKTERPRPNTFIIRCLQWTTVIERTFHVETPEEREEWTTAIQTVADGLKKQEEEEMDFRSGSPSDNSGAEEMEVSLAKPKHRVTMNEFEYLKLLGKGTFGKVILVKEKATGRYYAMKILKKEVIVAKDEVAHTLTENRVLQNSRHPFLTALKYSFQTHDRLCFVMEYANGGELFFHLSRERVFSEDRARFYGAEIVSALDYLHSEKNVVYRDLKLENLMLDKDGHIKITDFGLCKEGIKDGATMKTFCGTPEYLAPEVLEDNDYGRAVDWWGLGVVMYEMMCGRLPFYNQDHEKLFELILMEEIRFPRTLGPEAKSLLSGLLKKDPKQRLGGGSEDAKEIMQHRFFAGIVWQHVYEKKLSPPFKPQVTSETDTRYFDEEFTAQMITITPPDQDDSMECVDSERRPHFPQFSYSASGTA
Chain of RAC-gamma serine/threonine-protein kinase (Q9Y243 whole entry): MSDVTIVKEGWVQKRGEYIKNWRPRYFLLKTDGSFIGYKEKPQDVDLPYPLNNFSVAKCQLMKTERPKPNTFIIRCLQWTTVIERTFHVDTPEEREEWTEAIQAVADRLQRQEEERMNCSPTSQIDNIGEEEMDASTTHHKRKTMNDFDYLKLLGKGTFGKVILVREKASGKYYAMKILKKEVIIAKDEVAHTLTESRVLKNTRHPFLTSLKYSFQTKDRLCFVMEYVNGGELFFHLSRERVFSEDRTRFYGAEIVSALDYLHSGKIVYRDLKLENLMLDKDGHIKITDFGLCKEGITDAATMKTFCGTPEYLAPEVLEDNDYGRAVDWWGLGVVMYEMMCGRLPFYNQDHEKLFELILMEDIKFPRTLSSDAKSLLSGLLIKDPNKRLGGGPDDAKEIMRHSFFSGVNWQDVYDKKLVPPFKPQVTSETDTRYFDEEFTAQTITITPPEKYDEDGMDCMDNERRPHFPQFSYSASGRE
Chain of Voltage-gated inwardly rectifying potassium channel KCNH2 (Q12809 whole entry): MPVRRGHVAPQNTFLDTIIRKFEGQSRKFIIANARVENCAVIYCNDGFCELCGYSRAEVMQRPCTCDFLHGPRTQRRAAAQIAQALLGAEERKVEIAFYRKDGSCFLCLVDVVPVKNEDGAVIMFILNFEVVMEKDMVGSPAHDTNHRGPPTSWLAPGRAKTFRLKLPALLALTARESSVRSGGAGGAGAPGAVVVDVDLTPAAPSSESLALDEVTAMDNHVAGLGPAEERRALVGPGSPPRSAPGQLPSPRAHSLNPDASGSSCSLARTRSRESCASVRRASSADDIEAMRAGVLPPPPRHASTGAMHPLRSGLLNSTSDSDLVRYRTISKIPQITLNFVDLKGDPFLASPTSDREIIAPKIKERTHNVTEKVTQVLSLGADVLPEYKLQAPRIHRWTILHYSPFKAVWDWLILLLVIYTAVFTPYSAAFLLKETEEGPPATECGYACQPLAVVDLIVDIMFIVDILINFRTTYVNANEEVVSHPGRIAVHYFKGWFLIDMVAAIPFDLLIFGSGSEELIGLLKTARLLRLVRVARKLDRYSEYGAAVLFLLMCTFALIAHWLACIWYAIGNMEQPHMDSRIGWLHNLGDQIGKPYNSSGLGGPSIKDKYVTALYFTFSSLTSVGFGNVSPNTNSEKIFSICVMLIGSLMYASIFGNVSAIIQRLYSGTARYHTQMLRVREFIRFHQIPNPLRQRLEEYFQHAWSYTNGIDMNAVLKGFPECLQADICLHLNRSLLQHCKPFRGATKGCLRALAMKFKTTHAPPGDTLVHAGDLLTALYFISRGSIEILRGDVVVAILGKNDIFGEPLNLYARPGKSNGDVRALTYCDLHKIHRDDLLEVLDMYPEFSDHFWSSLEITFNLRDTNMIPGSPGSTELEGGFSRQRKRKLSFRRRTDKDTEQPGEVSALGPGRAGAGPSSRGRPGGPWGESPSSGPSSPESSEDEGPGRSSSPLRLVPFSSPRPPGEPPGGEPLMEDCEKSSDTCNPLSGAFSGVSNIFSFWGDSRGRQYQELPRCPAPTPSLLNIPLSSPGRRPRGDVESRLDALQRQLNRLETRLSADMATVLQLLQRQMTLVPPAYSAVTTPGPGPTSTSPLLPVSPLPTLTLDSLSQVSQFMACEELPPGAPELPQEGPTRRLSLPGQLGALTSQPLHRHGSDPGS

For `c1ccc(-c2cc3ccncc3nc2-c2ccc(CN3CCC(c4n[nH]c(-c5ccccn5)n4)CC3)cc2)cc1`, the IC50 [1] was over 50000 nM, the IC50 [2] was over 50000 nM and the IC50 [3] was over 50000 nM. The IC50 [4] was 981 nM, the IC50 [5] was 31 nM and the IC50 [6] was 160 nM. It also gave an IC50 [7] of 21 nM.
`c1ccc(-c2cc3cccnc3nc2-c2ccc(CN3CCC(c4n[nH]c(-c5ccccn5)n4)CC3)cc2)cc1` showed an IC50 [1] of over 50000 nM, an IC50 [2] of over 50000 nM and an IC50 [3] of over 50000 nM. It also gave an IC50 [4] of 1080 nM, an IC50 [5] of 83 nM and an IC50 [6] of 220 nM. For the same molecule, the IC50 [7] was 45 nM.
`c1ccc(-c2cc3cnccc3nc2-c2ccc(CN3CCC(c4n[nH]c(-c5ccccn5)n4)CC3)cc2)cc1` showed an IC50 [1] of over 50000 nM, an IC50 [2] of over 50000 nM and an IC50 [3] of over 50000 nM. The IC50 [4] was 2680 nM, the IC50 [5] was 21 nM and the IC50 [6] was 210 nM. The IC50 [7] was 7.4 nM.
`CCN(CC)CCNC(=O)c1ccc2nc(-c3ccccc3)c(-c3ccc(CN4CCC(n5c(=O)[nH]c6ccccc65)CC4)cc3)nc2c1` showed an IC50 [4] of 730 nM and an IC50 [5] of 527 nM.
For `c1ccc(-c2cc3cccnc3nc2-c2ccc(CN3CCC(c4cc(-c5ccccn5)[nH]n4)CC3)cc2)cc1`, the IC50 [1] was over 50000 nM, the IC50 [2] was over 50000 nM and the IC50 [3] was over 50000 nM. For the same molecule, the IC50 [4] was 995 nM, the IC50 [5] was 149 nM and the IC50 [6] was 280 nM. For the same molecule, the IC50 [7] was 44 nM.
Work on `O=c1ccc(-c2cc(C3CCN(Cc4ccc(-c5nc6ncccc6cc5-c5ccccc5)cc4)CC3)n[nH]2)c[nH]1` yielded an IC50 [1] of over 50000 nM, an IC50 [2] of over 50000 nM and an IC50 [3] of over 50000 nM. It also gave an IC50 [4] of 613 nM, an IC50 [5] of 132 nM and an IC50 [6] of 83 nM. It also gave an IC50 [7] of 34 nM.
`c1ccc(-c2nc3ccccc3nc2-c2ccc(CN3CCC(c4cc(-c5ccncc5)[nH]n4)CC3)cc2)cc1` showed an IC50 [8] of 11300 nM, a logD [9] of 2.71 and an IC50 [6] of 1080 nM. For the same molecule, the IC50 [7] was 75 nM.
`c1ccc(-c2cc3cccnc3nc2-c2ccc(CN3CCC(c4cc(-c5cccnc5)[nH]n4)CC3)cc2)cc1` gave an IC50 [1] of over 50000 nM, an IC50 [2] of over 50000 nM and an IC50 [3] of over 50000 nM. The IC50 [6] was 900 nM and the IC50 [7] was 250 nM.
`c1ccc(-c2cc3cccnc3nc2-c2ccc(CN3CCC(c4cc(-c5ccncc5)[nH]n4)CC3)cc2)cc1` showed an IC50 [1] of over 50000 nM, an IC50 [2] of over 50000 nM and an IC50 [3] of over 50000 nM. It also gave an IC50 [4] of 1450 nM, an IC50 [5] of 369 nM and an IC50 [6] of 260 nM. The IC50 [7] was 120 nM.
Molecule `c1ccc(-c2cc(C3CCN(Cc4ccc(-c5nc6ncccc6cc5-c5ccccc5)cc4)CC3)n[nH]2)cc1` has an IC50 [1] of over 50000 nM, an IC50 [2] of over 50000 nM and an IC50 [3] of over 50000 nM. It also gave an IC50 [6] of 1600 nM and an IC50 [7] of 470 nM.
In the case of `O=C1N=CC=C2N=C(c3ccc(CN4CCC(c5n[nH]c(-c6ccccn6)n5)CC4)cc3)C(c3ccccc3)=CC12` (configuration not stated), the Activity (Mus musculus [10]) is reported as 62%, the IC50 [1] is reported as over 50000 nM and the concentration at 10 h [11] is reported as 13000 nM. For the same molecule, the inhibition in vivo at 50 mg/kg (Mus musculus [12]) was 54%, the concentration at 16 h [13] was 2600 nM and the logP [14] was 3.51. The IC50 [15] was 5610 nM, the Activity (Mus musculus [16]) was 91% and the IC50 [8] was 1900 nM. The half-life [17] was 3.8 h, the IC50 [2] was over 50000 nM and the IC50 [3] was over 50000 nM. For the same molecule, the Activity (Mus musculus [18]) was 21%, the concentration at 24 h [19] was 700 nM and the IC50 [4] was 266 nM. The inhibition in vivo at 50 mg/kg (Mus musculus [20]) was 95%, the Activity (Mus musculus [21]) was 86% and the IC50 [5] was 16 nM. The IC50 [6] was 42 nM, the fraction unbound (Homo sapiens) was 0.027 and the inhibition in vivo at 50 mg/kg (Mus musculus [22]) was 75%. For the same molecule, the clearance [23] was 4.6 mL/min/kg, the Activity (Mus musculus [24]) was 100% and the Activity (A2780) was “Active”. The inhibition in vivo at 50 mg/kg (Mus musculus [25]) was 80%, the Activity (Mus musculus [26]) was 41% and the IC50 [7] was 3.5 nM.
`c1ccc(-c2cc3ncccc3nc2-c2ccc(CN3CCC(c4n[nH]c(-c5ccccn5)n4)CC3)cc2)cc1` showed an IC50 [1] of over 50000 nM, an IC50 [2] of over 50000 nM and an IC50 [3] of over 50000 nM. The IC50 [4] was 1480 nM, the IC50 [5] was 30 nM and the IC50 [6] was 70 nM. The IC50 [7] was 5.6 nM.
